Experiments:
DR5 mRNA = experiment: Multi-probe RNase protection assay, DR5 mRNA; type: cell-based, human; conditions: SKW 6.4 and Jurkat cells, 100 nM LAQ824, 8 or 16 hours; densitometry, GAPDH mRNA as loading control
Protocol: (§1) FIG. 6 Treatment with LAQ824 increases the mRNA expression of DR4 and DR5, and increases the association of the DR5 gene with the acetylated histone H3 and H4 in chromatin. A. After exposure of SKW 6.4 and Jurkat cells to 100 nM LAQ824 for the indicated time intervals (hours), mRNA expression levels of the indicated genes were determined using a Riboquant Multi-Probe RNase Protection Assay. B. Soluble chromatin was immunoprecipitated with anti-acetylated histone H3 and H4 antibodies. PCR primers for the DR5 promoter were used to amplify the DNA isolated from the immunoprecipitates. PCR products were scanned and quantified. […] The ratio between input DNA and precipitated DNA was calculated for each treatment.
(§2) A RiboQuant Multi-Probe RNase Protection Assay System was used according to the manufacturer's instructions (BD/PharMingen, San Diego, Calif.), and as previously described. […] The remaining probes were resolved on 5% denaturing polyacrylamide gel and analyzed by autoradiography.
(§3) Next, the effect of LAQ824 on the mRNA levels of c-FLIPL, DR5, DR4 and Apo-2L/TRAI, utilizing a multi-probe RNAse protection assay and estimated by densitometry with GAPDH mRNA as the loading control was determined. […] In contrast to the increase in the DR5 and DR4 mRNA levels, exposure to LAQ824 for eight hours inhibited the mRNA level of c-FLIPL by 75%, as determined by an RT-PCR assay (FIG. 7A). […]

Jurkat cells = experiment: Apoptosis of Jurkat cells, annexin V staining and flow cytometry; type: cell-based, human
Protocol: (§4) FIG. 2 LAQ824 induces accumulation in the G1 phase of the cell cycle and apoptosis. SKW 6.4 (A) and Jurkat (B) cells were treated with the indicated concentration of LAQ824 for 24 hours. Following this, the cell cycle status and the percentage of apoptotic cells were determined by flow cytometry. Values represent mean±SE of 3 experiments. FIG. 8 Treatment LAQ824 enhances Apo-2L/TRAIL induced DISC assembly, DISC activity and apoptosis. A. SKW 6.4 and B. Jurkat cells were treated with LAQ824 and/or Apo-2L/TRAIL at the indicated doses for 24 hours. Following this, the percentage of apoptotic cells was determined by annexin-V staining followed by flow cytometry. Values represent mean±SE of 3 experiments. C. Following treatment of Jurkat cells with LAQ824 (20 nM) and/or Apo-2L/TRAIL (10 ng/ml) for 24 hours, either the total cell lysates were utilized for immunoblot analyses of caspase-8, BID, caspase-3 and PARP, or the cytosolic (S100) fractions of cells were either used for immunoblot analysis of cytochrome (cyt) c, Omi or Smac (D), β-Actin expression was used as the loading control. E. SKW 6.4 cells were treated with 100 nM LAQ824 for 24 hours or 100 ng/ml Apo-2L/TRAIL for 2 hours, or LAQ824 followed by Apo-2L/TRAIL. […]

[1] = tested on: HDAC activity in the HeLa cell nuclear extracts; conditions: LAQ824 5 to 250 nM, previously reported; cited from earlier work
FAS mRNA = experiment: Multi-probe RNase protection assay, FAS mRNA; type: cell-based, human; conditions: SKW 6.4 and Jurkat cells, 100 nM LAQ824, 8 or 16 hours; densitometry, GAPDH mRNA as loading control
Protocol: as §1, §2, §3

DR4 mRNA = experiment: Multi-probe RNase protection assay, DR4 mRNA; type: cell-based, human; conditions: only in SKW 6.4 cells, 100 nM LAQ824, 8 or 16 hours
Protocol: as §1, §2, §3

SKW 6.4 cells = experiment: Apoptosis of SKW 6.4 cells, annexin V staining and flow cytometry; type: cell-based, human; conditions: 10 to 200 nM LAQ824, 24 hours, less than in Jurkat
Protocol: as §4

DR5 = experiment: Cell-membrane expression of DR5 in primary AML cells, anti-DR5 staining and flow cytometry; type: cell-based, human; conditions: primary AML sample, baseline 17.5%
Protocol: FIG. 11 LAQ824 induces histone acetylation, increases DR4 and DR5 levels, as well as down regulates FLIPS and FLIPL in primary AML cells. A. AML cells were treated with LAQ824 at the indicated concentrations for 24 hours. Following this histone protein were isolated, and the Histone H3 acetylation was detected by Western blot analysis using the anti-acetylated Histone H3 antibody. Total cell lysates of the untreated and LAQ824 treated cells were also used for immunoblot analyses of DR5, DR4, FLIPL and FLIPS. β-actin was used as the loading control. B. Bone marrow mononuclear cells from a patient with AML were exposed to 100 or 250 nM of LAQ824 for 24 hours. Following this, cell-membrane expression of DR5 was determined by staining with anti-DR5 antibody and evaluated by flow cytometry. Flow cytometric histograms in panels a to d are from cells treated with: a. Isotype control, b. untreated control cells, c. 100 nM LAQ824 and d. 250 nM LAQ824.
The sensitivity of fresh AML cells procured from patients with relapsed AML to Apo-2L/TRAIL and/or LAQ824-induced apoptosis was next to be determined. […] In every sample evaluated, co-treatment with LAQ824 and Apo-2L/TRAIL induced more apoptosis than treatment with either agent alone. […] Based on the availability adequate sample, we also determined the effect of LAQ824 on the determinants of Apo-2L/TRAIL-induced DISC.

SMILES: O=C(/C=C/c1ccc(CN(CCO)CCc2c[nH]c3ccccc23)cc1)NO [LAQ824]
- increase of mRNA expression of DR5 (DR5 mRNA): 2.4 fold
- apoptosis, % of Jurkat cells (Jurkat cells; 100 or 200 nM LAQ824, 24 hours, data not shown): more than 90%
- induction of apoptosis (annexin V positive) (Jurkat cells; Jurkat cells, 10 to 200 nM LAQ824, 24 hours, more than in SKW 6.4): induced apoptosis in a dose dependent manner
- in vitro HDAC activity [1]: inhibits the in vitro HDAC activity in a dose dependent manner
- increase of mRNA expression of FAS (FAS mRNA): 1.5 fold
- increase of DR4 mRNA levels (DR4 mRNA): 2.2 fold
- induction of apoptosis (annexin V positive) (SKW 6.4 cells): induced apoptosis in a dose dependent manner
- DR5 expression on the cell membrane, % of cells (DR5; 100 nM LAQ824, 24 hours): 33.2%
- DR5 expression on the cell membrane, % of cells (DR5; 250 nM LAQ824, 24 hours): 62.4%
